The record followed here is patent US7410963B2, “Benzo-1,4-diazepin-2-one derivatives as phosphodiesterase PDE2 inhibitors, preparation and therapeutic use thereof” (VIA Pharmaceuticals, Inc., priority 2003, dated 2008).

By inhibition is commonly meant how much of the control response was suppressed.

The first assay concerns the target T1, PDE2 (Bos taurus, UniProt P14099).
T1 sequence (P14099 1-921): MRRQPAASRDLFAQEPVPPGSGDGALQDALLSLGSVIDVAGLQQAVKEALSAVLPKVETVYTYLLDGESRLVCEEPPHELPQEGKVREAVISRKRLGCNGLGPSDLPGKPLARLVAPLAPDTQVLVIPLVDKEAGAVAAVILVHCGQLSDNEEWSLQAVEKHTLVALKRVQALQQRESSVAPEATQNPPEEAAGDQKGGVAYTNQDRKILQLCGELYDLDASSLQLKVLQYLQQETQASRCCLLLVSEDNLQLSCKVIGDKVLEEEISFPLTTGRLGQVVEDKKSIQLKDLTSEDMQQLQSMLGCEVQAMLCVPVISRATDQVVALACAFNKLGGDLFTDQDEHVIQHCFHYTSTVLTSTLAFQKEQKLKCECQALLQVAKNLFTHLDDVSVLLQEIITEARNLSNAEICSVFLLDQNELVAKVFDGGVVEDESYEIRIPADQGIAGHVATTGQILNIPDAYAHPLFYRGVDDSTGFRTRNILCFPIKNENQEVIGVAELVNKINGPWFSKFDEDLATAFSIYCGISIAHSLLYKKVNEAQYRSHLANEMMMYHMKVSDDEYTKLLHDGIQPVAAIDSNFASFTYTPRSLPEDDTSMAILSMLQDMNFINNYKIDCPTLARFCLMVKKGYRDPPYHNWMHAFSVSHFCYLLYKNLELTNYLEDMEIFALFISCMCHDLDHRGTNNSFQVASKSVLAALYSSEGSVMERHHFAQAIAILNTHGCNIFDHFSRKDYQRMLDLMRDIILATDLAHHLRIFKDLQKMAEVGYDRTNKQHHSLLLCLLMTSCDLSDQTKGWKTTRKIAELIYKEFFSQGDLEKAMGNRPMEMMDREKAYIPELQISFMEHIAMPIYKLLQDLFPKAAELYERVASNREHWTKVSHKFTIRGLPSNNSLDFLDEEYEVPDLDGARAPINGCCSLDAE
Kind of assay: Radioenzymatic phosphodiesterase assay: PDE2 inhibition. The conditions noted are these: Table 1; 10 μM test compound; read-out: PDE2 percentage of inhibition at 10 μM. Format: biochemical, bovine. As for the experimental part:
Nucleoside radioactivity was determined by liquid scintillation.
As for `COc1ccccc1-c1cc2c(cc1OC)N(CCc1ccccc1)C(=O)CN=C2c1cccc(C#N)c1` [Example 38, 3-[8-Methoxy-7-(2-methoxy-phenyl)-2-oxo-1-phenethyl-2,3-dihydro-1H-benzo[e][1,4]diazepin-5-yl]-benzonitrile], the inhibition at 10 µM came to 86%. Same read-out and setting: to `CN1C(=O)CN=C(c2cccc(Cl)c2)c2cc(-c3ccccc3)ccc21` [Example 40, 5-(3-Chloro-phenyl)-1-methyl-7-phenyl-1,3-dihydro-benzo[e][1,4]diazepin-2-one] belongs 68%; to `CN1C(=O)CN=C(c2ccccc2Cl)c2cc(-c3ccccc3)ccc21` [Example 41, 5-(2-Chloro-phenyl)-1-methyl-7-phenyl-1,3-dihydro-benzo[e][1,4]diazepin-2-one], 34%; to `CN1C(=O)CN=C(c2ccc(Cl)cc2)c2cc(-c3ccccc3)ccc21` [Example 42, 5-(4-Chloro-phenyl)-1-methyl-7-phenyl-1,3-dihydro-benzo[e][1,4]diazepin-2-one], 1%. As to `COc1ccccc1C1=NCC(=O)N(C)c2ccc(-c3ccccc3)cc21` [Example 51, 5-(2-Methoxy-phenyl)-1-methyl-7-phenyl-1,3-dihydro-benzo[e][1,4]diazepin-2-one], the inhibition at 10 µM came out at 28%. In the case of `CN1C(=O)CN=C(c2cccc(C#N)c2)c2cc(-c3ccco3)ccc21` [Example 52, 3-[7-(Furan-2-yl)-1-methyl-2-oxo-2,3-dihydro-1H-benzo[e][1,4]diazepin-5-yl]-benzonitrile], the inhibition at 10 µM worked out at 78%. The same measure, in the same setting: to `CN1C(=O)CN=C(c2cc(Cl)cc(Cl)c2)c2cc(-c3ccccc3)ccc21` [Example 55, 5-(3,5-Dichloro-phenyl)-1-methyl-7-phenyl-1,3-dihydro-benzo[e][1,4]diazepin-2-one] belongs 53%; to `CN1C(=O)CN=C(c2ccc(Cl)c(Cl)c2)c2cc(-c3ccccc3)ccc21` [Example 56, 5-(3,4-Dichloro-phenyl)-1-methyl-7-phenyl-1,3-dihydro-benzo[e][1,4]diazepin-2-one], 70%. For the compound `CN1C(=O)CN=C(c2ccc(F)cc2)c2cc(-c3ccccc3)ccc21` [Example 57, 5-(4-Fluoro-phenyl)-1-methyl-7-phenyl-1,3-dihydro-benzo[e][1,4]diazepin-2-one], the inhibition at 10 µM amounted to 74%. On the same count and under the same terms, to `CC(=O)c1cccc(C2=NCC(=O)N(C)c3ccc(-c4ccccc4)cc32)c1` [Example 58, 5-(3-Acetyl-phenyl)-1-methyl-7-phenyl-1,3-dihydro-benzo[e][1,4]diazepin-2-one] belongs 91%. Turning to `CN1C(=O)CN=C(c2cccc(C(F)(F)F)c2)c2cc(-c3ccccc3)ccc21` [Example 59, 1-Methyl-7-phenyl-5-(3-trifluoromethyl-phenyl)-1,3-dihydro-benzo[e][1,4]diazepin-2-one], the inhibition at 10 µM came out at 43%. The same measure, in the same setting: to `Cc1ccc(C2=NCC(=O)N(C)c3ccc(-c4ccccc4)cc32)cc1[N+](=O)[O-]` [Example 60, 1-Methyl-5-(4-methyl-3-nitro-phenyl)-7-phenyl-1,3-dihydro-benzo[e][1,4]diazepin-2-one] belongs 88%; to `CN1C(=O)CN=C(c2ccc(OC(F)(F)F)cc2)c2cc(-c3ccccc3)ccc21` [Example 61, 1-Methyl-7-phenyl-5-(4-trifluoromethoxy-phenyl)-1,3-dihydro-benzo[e][1,4]diazepin-2-one], 31%; to `COc1cc2c(cc1-c1ccccc1)C(c1cccc(Br)c1)=NCC(=O)N2C` [Example 62, 5-(3-Bromo-phenyl)-8-methoxy-1-methyl-7-phenyl-1,3-dihydro-benzo[e][1,4]diazepin-2-one], 98%. On the same count and under the same terms, to `COc1ccc(C2=NCC(=O)N(C)c3ccc(-c4ccccc4)cc32)cc1OC` [Example 64, 5-(3,4-Dimethoxy-phenyl)-1-methyl-7-phenyl-1,3-dihydro-benzo[e][1,4]diazepin-2-one] belongs 79%; to `CN1C(=O)CN=C(c2cccc([N+](=O)[O-])c2)c2cc(-c3ccccc3)ccc21` [Example 65, 1-Methyl-5-(3-nitro-phenyl)-7-phenyl-1,3-dihydro-benzo[e][1,4]diazepin-2-one], 78%.

The same assay, now with this note: read-out: PDE2 percentage of inhibition at 10 μM.
For `CCCN1C(=O)CN=C(c2cccc(C#N)c2)c2cc(-c3ccccc3OC)c(OC)cc21` [Example 37, 3-[8-Methoxy-7-(2-methoxy-phenyl)-2-oxo-1-propyl-2,3-dihydro-1H-benzo[e][1,4]diazepin-5-yl]-benzonitrile], the inhibition at 10 µM was found to be 45%.

As for `COc1ccccc1-c1cc2c(cc1OC)N(Cc1ccccc1)C(=O)CN=C2c1cccc(C#N)c1` [Example 39, 3-[1-Benzyl-8-methoxy-7-(2-methoxy-phenyl)-2-oxo-2,3-dihydro-1H-benzo[e][1,4]diazepin-5-yl]-benzonitrile], the inhibition at 10 µM amounted to 72%.

In the case of `COc1cc2c(cc1-c1ccc(C#N)cc1)C(c1cccc(C#N)c1)=NCC(=O)N2C` [Example 43, 3-(8-Methoxy-1-methyl-2-oxo-7-(4-cyanophenyl)-2,3-dihydro-1H-benzo[e][1,4]diazepin-5-yl)-benzonitrile], the inhibition at 10 µM turned out to be 92%. In the case of `COc1ccccc1-c1cc2c(cc1OC)N(Cc1ccccc1)C(=O)CN=C2c1cccc(C(N)=O)c1` [Example 44, 3-[1-Benzyl-8-methoxy-7-(2-methoxy-phenyl)-2-oxo-2,3-dihydro-1H-benzo[e][1,4]diazepin-5-yl]-benzamide], the inhibition at 10 µM is 88%. Turning to `CCCN1C(=O)CN=C(c2cccc(C(N)=O)c2)c2cc(-c3ccccc3OC)c(OC)cc21` [Example 45, 3-[8-Methoxy-7-(2-methoxy-phenyl)-2-oxo-1-propyl-2,3-dihydro-1H-benzo[e][1,4]diazepin-5-yl]-benzamide], the inhibition at 10 µM turned out to be 48%. Same read-out and setting: to `COc1ccccc1-c1cc2c(cc1OC)N(CCc1ccccc1)C(=O)CN=C2c1cccc(C(N)=O)c1` [Example 46, 3-[8-Methoxy-7-(2-methoxy-phenyl)-2-oxo-1-phenethyl-2,3-dihydro-1H-benzo[e][1,4]diazepin-5-yl]-benzamide] belongs 78%; to `CCCCCCN1C(=O)CN=C(c2cccc(C(N)=O)c2)c2cc(-c3ccccc3OC)c(OC)cc21` [Example 47, 3-[1-Hexyl-8-methoxy-7-(2-methoxy-phenyl)-2-oxo-2,3-dihydro-1H-benzo[e][1,4]diazepin-5-yl]-benzamide], 59%; to `COc1cc2c(cc1-c1ccc(C(C)=O)cc1)C(c1cccc(C#N)c1)=NCC(=O)N2C` [Example 48, 3-[7-(4-Acetylphenyl)-8-methoxy-1-methyl-2-oxo-2,3-dihydro-1H-benzo[e][1,4]diazepin-5-yl]-benzonitrile], 97%. Same read-out and setting: to `COc1cc2c(cc1-c1ccc(C(C)=O)cc1)C(c1cccc(C(N)=O)c1)=NCC(=O)N2C` [Example 49, 3-[7-(4-Acetylphenyl)-8-methoxy-1-methyl-2-oxo-2,3-dihydro-1H-benzo[e][1,4]diazepin-5-yl]-benzamide] belongs 99%; to `COc1ccc(C2=NCC(=O)N(C)c3ccc(-c4ccccc4)cc32)cc1` [Example 50, 5-(4-Methoxy-phenyl)-1-methyl-7-phenyl-1,3-dihydro-benzo[e][1,4]diazepin-2-one], 95%; to `COc1ccc(-c2ccc3c(c2)C(c2cccc(C#N)c2)=NCC(=O)N3C)cc1OC` [Example 53, 3-[7-(3,4-Dimethoxy-phenyl)-1-methyl-2-oxo-2,3-dihydro-1H-benzo[e][1,4]diazepin-5-yl]-benzonitrile], 95%.

Regarding `COc1ccc(-c2ccc3c(c2)C(c2cccc(C(N)=O)c2)=NCC(=O)N3C)cc1OC` [Example 54, 3-[7-(3,4-Dimethoxy-phenyl)-1-methyl-2-oxo-2,3-dihydro-1H-benzo[e][1,4]diazepin-5-yl]-benzamide], the inhibition at 10 µM was determined as 94%. Take `COc1cc2c(cc1-c1ccccc1OC(C)C)C(c1cccc(C#N)c1)=NCC(=O)N2C` [Example 63, 3-[7-(2-isopropoxy-phenyl)-8-methoxy-1-methyl-2-oxo-2,3-dihydro-1H-benzo[e][1,4]diazepin-5-yl]-benzonitrile]: the inhibition at 10 µM was 98%.

As to `CCCCC#Cc1cccc(C2=NCC(=O)N(C)c3cc(OC)c(-c4ccccc4)cc32)c1` [Example 66, 5-(3-Hex-1-ynyl-phenyl)-8-methoxy-1-methyl-7-phenyl-1,3-dihydro-benzo[e][1,4]diazepin-2-one], the inhibition at 10 µM was 86%.
